≈ marks a conversion by molar mass, not a printed value. Where two headings read alike, the source gives them in different places. Marks after values point to notes of the source that are not given here.
What was measured:
[1] = parameters: method as in earlier work; conditions: 5 mM sodium taurocholate and […] lecithin in pH 6.8 phosphate buffer; cited from earlier work
[2] = cited from earlier work
[3] = cited from earlier work; remark: listed apart in the source
[4] = Ketoconazole solubility by pH adjustment with HCl (pH-solubility profile); assay type: physicochemical; conditions: 25 °C
Protocol: Multiple vials were prepared using different concentration of HCl solutions (0.001M to 1M) so that different pH values could be attained, and, when needed, more amount of free base was added to maintain excess solid in the vials. […] Additional HCl solution and excess ketoconazole were added to the suspension in vial and shaken for another pH point, and the process was repeated until enough points on the pH scale were obtained. More than one suspension in different vials were used to generate a complete profile.

[5] = Ketoconazole solubility with fumaric/succinic acid and 1:1 physical mixtures with coformers; assay type: physicochemical; conditions: 1:1 ketoconazole-fumaric acid mixture, 25 °C
Protocol: A series of solutions with different concentrations of acids were prepared and 3 mL quantities of these solutions were distributed in separate glass vials. […] Aliquots of suspensions (0.5-0.7 mL each) were, however, withdrawn from each vial after 4, 24 and 96 h of shaking for analysis of drug concentration by HPLC according to the method described earlier. For the analysis of solid phase, contents of the vials were transferred to 3-mL Eppendorf tubes and centrifuged using Beckman GS 6R centrifuge at 2000 RPM for 5 min. After centrifugation, the supernatants were removed and solid contents were dried in a vacuum oven at 50 °C, which were then analyzed by DSC and Raman spectroscopy.
In this study, different quantities of the mixtures (12 mg to 350 mg) were added to different 20 mL glass vials, and then 5 mL of water was added to each vial. Thus, the volume of water in each vial remained the same and only the amount of material added differed. […] Samples were withdrawn from each vial at 4, 24 and 96 h to measure drug concentration, as described earlier. The solid phase of the vials was analyzed using Raman spectroscopy to determine the identity of equilibrium species. From some of the vials, solid contents were separated by centrifugation, dried in a vacuum oven, and then analyzed by DSC.

[6] = Intrinsic dissolution rate; assay type: physicochemical; parameters: key: -: Extremely low dissolution rate (practically zero) that could not be calculated with accuracy; conditions: 25 °C
Protocol: For each determination, 100 mg of powder was compressed into pellet by Carver press at 1 ton pressure for 10 seconds. The apparatus with the exposed surface of the material was immersed into 250 mL of dissolution medium and rotated at 200 RPM. pH of dissolution media during the intrinsic dissolution testing were maintained by two different methods: in one case, unbuffered media were used where either 0.1 M HCl or 0.1 M NaOH were added to keep pH constant at 3, 4 or 5 (±0.15), and in the second case, pH 3, 4 and 5 phthalate buffers prepared according to the USP were used as dissolution media to keep pH constant. Two mL of aliquot was withdrawn at each of 5, 15, 30, 60, 90 and 120 min time points, filtered by 0.45-micron PVDF filter, and analyzed by HPLC for drug concentration.

[7] = Solubility in buffered/non-buffered media
Protocol: Cocrystal solubilities were determined at pH 1 solution (0.1 M HCl), pH 2 HCl buffer), pH 5 acetate buffer and pH 8 phosphate buffer. Buffers were prepared according to the United States Pharmacopeia (USP) procedures. […] Aliquots were filtered by 0.45-micron PVDF filter and analyzed by HPLC. The solid phase was analyzed by Raman spectroscopy.

[8] = average of two
Protocol: Essentially, in the present investigation, about 0.5 mL of buffer was added to 200 mg of powder in a small vial and mixed by vortexing, and then pH was recorded when an equilibrium was reached after 5-10 min of mixing.

[9] = excess cocrystal in water, 25 °C
[10] = buffers, pH 3 phthalate, 0.5 cm^2
[11] = buffers, pH 4 phthalate, 0.5 cm^2
[12] = unbuffered media, pH 3 kept constant with HCl or NaOH, 0.5 cm^2
[13] = unbuffered media, pH 4 kept constant with HCl or NaOH, 0.5 cm^2
[14] = initial pH 1.1 (0.1 M HCl), 25 °C
[15] = initial pH 2.1 HCl/KCl buffer, 25 °C
[16] = initial pH 5.0 acetate buffer, 25 °C
[17] = initial pH 7.9 phosphate buffer, 25 °C
[18] = pH 3 phthalate buffer, initial (bulk) pH 2.93
[19] = pH 5 neutralized phthalate buffer, initial (bulk) pH 4.97
[20] = pH 7 phosphate buffer, initial (bulk) pH 6.97

CC(=O)Nc1nc2c(Oc3cc(-c4ccc(C(F)(F)F)cc4)ncn3)cccc2s1 [AMG 517]
Solubility in FaSIF [1]: 5 µg/mL (≈ 11.6 µM) | pKa [2]: 0.68

CC(C)(C)C(=O)OCOP(=O)(COCCn1cnc2c(N)ncnc21)OCOC(=O)C(C)(C)C [adefovir dipivoxil]
Solubility in water [3]: 790 µM | pH of saturated solutions [3]: 6.7

CCOc1ccccc1C(N)=O [ethenzamide]
Solubility in water [3]: 0.80 to 0.85 µg/mL

O=C(O)/C=C/C(=O)O [fumaric acid]
pKa, first ionization [2]: 2.74 | pKa, second ionization [2]: 4.17

CC(=O)N1CCN(c2ccc(OC[C@H]3CO[C@](Cn4ccnc4)(c4ccc(Cl)cc4Cl)O3)cc2)CC1.Cl.Cl [ketoconazole dihydrochloride salt, ketoconazole dihydrochloride]
Solubility (in words) [3]: very high solubility

CC(=O)N1CCN(c2ccc(OCC3COC(Cn4ccnc4)(c4ccc(Cl)cc4Cl)O3)cc2)CC1 (stereo not shown) [ketoconazole]
solubility ([4]; pH of suspension 3.35, pH lowered using HCl, listed as ketoconazole base): 5429 µg/mL (≈ 10200 µM) | solubility ([4]; suspension in distilled water, pH adjusted with HCl, pH 3.1, aqueous buffer, thermodynamic from solid, pH 3.1, pH adjusted with HCl, read-out: Highest solubility measured): 148000 µg/mL (≈ 279000 µM) | solubility ([4]; suspension in distilled water, pH adjusted with HCl, pH 3.1, aqueous buffer, thermodynamic from solid, pH of suspension 3.1, pH lowered using HCl, read-out: Solubility): 148000 µg/mL (≈ 279000 µM) | solubility ([4]; suspension in distilled water, pH adjusted with HCl, pH 3.35, aqueous buffer, thermodynamic from solid, pH of suspension 3.35, pH lowered using HCl, read-out: Solubility): 5460 µg/mL (≈ 10300 µM) | solubility ([4]; suspension in distilled water, pH adjusted with HCl, pH 3.37, aqueous buffer, thermodynamic from solid, pH of suspension 3.37, pH lowered using HCl, read-out: Solubility): 7100 µg/mL (≈ 13400 µM) | solubility ([4]; suspension in distilled water, pH adjusted with HCl, pH 3.58, aqueous buffer, thermodynamic from solid, pH of suspension 3.58, pH lowered using HCl, read-out: Solubility): 3420 µg/mL (≈ 6440 µM) | solubility ([4]; suspension in distilled water, pH adjusted with HCl, pH 3.81, aqueous buffer, thermodynamic from solid, pH of suspension 3.81, pH lowered using HCl, read-out: Solubility): 1930 µg/mL (≈ 3630 µM) | solubility ([4]; suspension in distilled water, pH adjusted with HCl, pH 4.28, aqueous buffer, thermodynamic from solid, pH of suspension 4.28, pH lowered using HCl, read-out: Solubility): 729 µg/mL (≈ 1370 µM) | solubility ([4]; suspension in distilled water, pH adjusted with HCl, pH 4.48, aqueous buffer, thermodynamic from solid, pH of suspension 4.48, pH lowered using HCl, read-out: Solubility): 345 µg/mL (≈ 649 µM) | solubility ([4]; suspension in distilled water, pH adjusted with HCl, pH 4.56, aqueous buffer, thermodynamic from solid, pH of suspension 4.56, pH lowered using HCl, read-out: Solubility): 354 µg/mL (≈ 666 µM) | solubility ([4]; suspension in distilled water, pH adjusted with HCl, pH 4.95, aqueous buffer, thermodynamic from solid, pH of suspension 4.95, pH lowered using HCl, read-out: Solubility): 178 µg/mL (≈ 335 µM) | solubility ([4]; suspension in distilled water, pH adjusted with HCl, pH 4.99, aqueous buffer, thermodynamic from solid, pH of suspension 4.99, pH lowered using HCl, read-out: Solubility): 175 µg/mL (≈ 329 µM) | solubility ([4]; suspension in distilled water, pH adjusted with HCl, pH 7.12, aqueous buffer, thermodynamic from solid, pH of suspension 7.12, pH lowered using HCl, read-out: Solubility): 5 µg/mL (≈ 9.41 µM) | solubility ([4]; suspension in distilled water, pH adjusted with HCl, pH 7.23, aqueous buffer, thermodynamic from solid, pH of suspension 7.23, pH lowered using HCl, read-out: Solubility): 4 µg/mL (≈ 7.53 µM) | solubility ([4]; suspension in distilled water, pH adjusted with HCl, pH 3.67, pH of suspension 3.67, pH lowered using HCl, read-out: Solubility): 3030 µg/mL (≈ 5700 µM) | solubility ([4]; suspension in distilled water, pH adjusted with HCl, pH 3.71, pH of suspension 3.71, pH lowered using HCl, read-out: Solubility): 2780 µg/mL (≈ 5230 µM) | solubility ([4]; suspension in distilled water, pH adjusted with HCl, pH 7.27, pH of suspension 7.27, pH lowered using HCl, read-out: Solubility): 3 µg/mL (≈ 5.65 µM) | solubility ([4]; suspension in distilled water, pH adjusted with HCl, pH 7.72, pH of suspension 7.72, pH lowered using HCl, read-out: Solubility): 2 µg/mL (≈ 3.76 µM) | solubility ([4]; suspension in distilled water, pH adjusted with HCl, pH 7.92, pH of suspension 7.92, pH lowered using HCl, read-out: Solubility): 3 µg/mL (≈ 5.65 µM) | solubility ([4]; suspension in distilled water, pH adjusted with HCl, pH 8.49, pH of suspension 8.49, pH lowered using HCl, read-out: Solubility): 2 µg/mL (≈ 3.76 µM) | solubility ([4]; suspension in distilled water, pH adjusted with HCl, pH higher than 8, read-out: Intrinsic solubility of the free base (nonprotonated species)): ~2 µg/mL (≈ 3.76 µM) | solubility at 96 h ([5]; equilibrated 96 h, pH~3.7): ~3000 µg/mL (≈ 5650 µM) | solubility at 4 h ([5]; water, thermodynamic from solid, equilibrated 4 h, no conversion to cocrystal): ~7000 µg/mL (≈ 13200 µM) | Dissolution rate constant [6, 10]: 108 μg.min^-1.cm^-2 | Dissolution rate constant [6, 11]: 45 μg.min^-1.cm^-2 | Dissolution rate constant ([6]; buffers, pH 5 phthalate): - ^** | Dissolution rate constant [6, 12]: 106 μg.min^-1.cm^-2 | Dissolution rate constant [6, 13]: 16 μg.min^-1.cm^-2 | Dissolution rate constant ([6]; unbuffered media, pH 5 kept constant with HCl or NaOH): - ^** | solubility ([7]; 0.1 M HCl, 25 °C, pH 1.1, simulated gastric fluid, thermodynamic from solid): ~27000 µg/mL (≈ 50800 µM) | solubility ([7]; HCl/KCl buffer, 25 °C, pH 2.1, simulated gastric fluid, thermodynamic from solid): ~3400 µg/mL (≈ 6400 µM) | solubility ([7]; acetate buffer, 25 °C, pH 5, aqueous buffer, thermodynamic from solid): 130 µg/mL (≈ 245 µM) | pH after equilibration [7, 14]: ~2.9 ^* | pH after equilibration [7, 15]: ~3.6 ^* | pH after equilibration [7, 16]: 4.95 | pH after equilibration [7, 17]: 7.82±0.01 | solubility ([7]; phosphate buffer, pH 7.9): 1 µg/mL (≈ 1.88 µM) | pH h=0 (slurry pH) [8, 18]: 4.17 | pH h=0 (slurry pH) [8, 19]: 5.00 | pH h=0 (slurry pH) [8, 20]: 7.05

Nc1nnc(-c2cccc(Cl)c2Cl)c(N)n1 [lamotrigine]
Solubility in water [3]: 154 µg/mL | pH of the aqueous slurries during the determination of solubility [3]: 6.8 | Solubility in water ([3]; pH of ~5.5, cocrystals at 1:1 ratios): 280 µg/mL

O=C(O)CCC(=O)O [succinic acid]
pKa, first ionization [2]: 3.93 | pKa, second ionization [2]: 5.30

ketoconazole-fumaric acid cocrystal
pH of saturated solution in water [9]: 4.1 | Solubility in water (as ketoconazole equivalents) ([9]; saturated solution pH 4.1 (fumaric) / 4.2 (succinic)): 2600 µg/mL | Dissolution rate constant [6, 10]: 108 μg.min^-1.cm^-2 | Dissolution rate constant [6, 11]: 71 μg.min^-1.cm^-2 | Dissolution rate constant ([6]; buffers, pH 5 phthalate, 0.5 cm^2): 51 μg.min^-1.cm^-2 | Dissolution rate constant [6, 12]: 164 μg.min^-1.cm^-2 | Dissolution rate constant [6, 13]: 124 μg.min^-1.cm^-2 | Dissolution rate constant ([6]; unbuffered media, pH 5 kept constant with HCl or NaOH, 0.5 cm^2): 93 μg.min^-1.cm^-2 | pH after equilibration [7, 14]: 2.03± 0.01 | solubility ([7]; initial pH 1.1 (0.1 M HCl), 25 °C, average of three determinations): 21540 ± 550 µg/mL | pH after equilibration [7, 15]: 2.89 ± 0.02 | solubility ([7]; initial pH 2.1 HCl/KCl buffer, 25 °C, average of three determinations): 3390 ± 20 µg/mL | pH after equilibration [7, 16]: 4.31 ± 0.02 | solubility ([7]; initial pH 5.0 acetate buffer, 25 °C, average of three determinations): 600 ± 20 µg/mL | pH after equilibration [7, 17]: 7.17 ± 0.01 | solubility ([7]; initial pH 7.9 phosphate buffer, 25 °C, average of three determinations): 3 ± 2 µg/mL | pH h=0 (slurry pH) [8, 18]: 3.13 | pH h=0 (slurry pH) ([8]; pH 4 phthalate buffer, initial (bulk) pH 3.96): 4.08 | pH h=0 (slurry pH) [8, 19]: 4.23 | pH h=0 (slurry pH) [8, 20]: 4.53

From article PMC8957230 (ADMET & DMPK, 2019)
